Results published in patent US20030138946A1.

What was measured:
[1] = test system: CD8^+ 2C lymph node cells; assay: Primary proliferative response of CD8+ 2C lymph node cells to peptides presented by transfected fly cells (3HTdR); assay type: cell-based, mouse; settings: peptide 10 μM
Protocol: (§1) Using a standard tissue culture system (Cai, Z. and Sprent, J. (1994) J. Exp. Med. 179: 2005-2015), doses of 5×10^4 purified CD8^+ 2C lymph node (LN) cells were cultured at 37° C. with doses of 3×10^5 transfected fly cells ±peptides (10 μM final concentration). Peptides were synthesized by R. W. Johnson Pharmaceutical Research Institute (Sykulev, et al. (1994) Immunity 1: 15-22. Proliferative responses were measured by adding ^3HTdR (1 μCi/well) 8 hours prior to harvest. IL-2 production was measured by removing supernatants from the cultures at 48 hours and adding 50 μl supernatant to an IL-2 responsive indicator cell line (CTLL); proliferation of the indicator line was measured by addition of ^3HTdR. The data shown in Table 2 are the means of triplicate cultures. The transfected Drosophila S2 cells die rapidly at 37° C. and fail to incorporate ^3HTdR at this temperature.

[2] = test system: CD8^+ 2C lymph node cells; assay: IL-2 production by CD8+ 2C lymph node cells (CTLL indicator line 3HTdR); assay type: cell-based, mouse; settings: peptide 10 μM
Protocol: as §1

2C+ T-cells [3] = assay: Rosetting of 2C+ T-cells with L^d-bearing supports plus peptide; assay type: cell-based, mouse; settings: peptide 0.02 mM
Protocol: Rosetting experiments verified that the attached MHC molecules interacted functionally with T-cells. Drosophila S2 cells expressing L^d, L^d-coated SRBC were incubated with QL9 peptide (0.02 mM) or an irrelevant peptide (MCMV, 0.02 mM) for 30 minutes on ice; 2C+ T-cells were then added, the proportion being 10 2C+ T-cells for 1 Drosophila S2 cell, or 10 SRBC for 1 2C+ T-cell; the mixture was pelleted and kept on ice for at least 30 min. Cells were then carefully resuspended and rosettes were counted, a rosette being a Drosophila S2 cell bound to at least 3 2C+ T-cells, or a 2C+ T-cell bound to at least 3 SRBC. […] Typically, 30-40% of the lymphocytes were included in rosettes when QL9 peptide was added.
Rosetting experiments verified that the attached MHC molecules on latex beads interacted functionally with T-cells. Drosophila S2 cells expressing recombinant L^d and L^d-coated latex beads were incubated with QL9 peptide (0.02 mM) or an irrelevant peptide (MCMV, 0.02 mM) for 30 minutes on ice; 2C+ T-cells were then added, the proportion being 10 2C+ T-cells for 1 Drosophila S2 cell, or […]; the mixture was pelleted and kept on ice for at least 30 min. Cells were then carefully resuspended and rosettes were counted, a rosette being a Drosophila S2 cell bound to at least 3 2C+ T-cells, or a 2C+ T-cell bound to at least 3 latex beads. […]

normal B6 CD8^+ cells = assay: Proliferation of normal (nontransgenic) B6 CD8+ cells to peptide on L^d.B7.ICAM Drosophila APC; assay type: cell-based, mouse; settings: 10 μM peptide, L^d.B7.1CAM APC, 1×10^6 responder cells, no added cytokines
Protocol: The capacity of L^d.B7.1CAM Drosophila cells to induce a strong primary response of 2C TCR transgenic CD8^+ cells raised the question whether Drosophila cells could act as antigen-presenting cells for normal (nontransgenic) CD8^+ cells. Since the 2C mice were on a B6 (H-2b) background, the response of normal B6 CD8^+ cells was tested. Graded doses of CD8^+ cells from normal B6 mice were cultured with 10 μM QL9 peptide presented by L^d.B7.1CAM Drosophila antigen-presenting cells, i.e. a situation where a diverse repertoire of T-cells was exposed to only a single alloantigen (L^d+QL9) but at high concentration. As shown in FIG. 19 (left), presentation of QL9 by L^d.B7.1CAM antigen-presenting cells was indeed immunogenic for normal B6 CD8^+ cells and led to appreciable proliferative responses on Day 3 (80,000 cpm) with large doses of responder cells (1×10^6) in the absence of added cytokines; responses to an unrelated peptide, MCMV, were much lower (though significant) and no response occurred in the absence of peptide. As expected, the response of normal B6 CD8+cells to QL9 plus L^d.B7.1CAM antigen-presenting cells was substantially lower than with normal B10.D2 spleen cells as antigen-presenting cells (where the allostimulus was provided by a multiplicity of self peptides bound to L^d, K^d and D^d, but at low concentration) (FIG. 19, right. Note the difference in the Y axis scales).

2C+ T-cells [4] = assay type: cell-based, mouse
2C+ T-cells [5] = assay: Enrichment of 2C+ T-cells from a 1/99 mixture with C57BL/6 CD8+ cells (1B2 staining, flow cytofluorometry); assay type: cell-based, mouse
Protocol: 2C+ T-cells were mixed with total CD8^+ cells from C57BL/6 mice at a 1/99 ratio and cells were cultured with immobilized L^d and anti-CD28 antibody in the presence of peptide QL9. IL-2 was added at day 2 of culture, and subsequently every other day. Cell activation and proliferation was noted, as evidenced by the formation of clumps, presence of enlarged cells that progressively spread in the well. At day 12 of culture, cells were harvested and percentage of cells expressing the 2C T-cell receptor was assessed by staining with the anticlonotypic antibody 1B2 and analysis by flow cytofluorometry: 43% of the cells cultured initially in the presence of peptide QL9 were 2C+, (FIG. 22) whereas 49% of the cells expressed 2C after stimulation with peptide p2Ca (FIG. 23), and 22% with peptide SL9 (FIG. 24). […] Enrichment was observed even with SL9, a peptide that makes a low affinity complex with the 2C T-cell receptor. This method thus can specifically activate and enrich a small subpopulation of antigen specific T-cells out of a heterogenous mixture of T-cells.

[6] = test system: RMA.S cells (target cells) expressing L^d; assay type: cell-based, mouse
soluble 2C TCR molecules = settings: peptide complexed to L^d; association constant; cited from earlier work

Gln-Leu-Ser-Pro-Phe-Pro-Phe-Asp-Leu [QL9]
Proliferation (Day 3) ^3HTdR incorporation, fly cells expressing L^d ([1]; APC L^d): 0.2 cpm × 10^3 | Proliferation (Day 3) ^3HTdR incorporation, fly cells expressing L^d + B7.1 ([1]; APC L^d + B7.1): 60.9 cpm × 10^3 | Proliferation (Day 3) ^3HTdR incorporation, fly cells expressing L^d + B7.1 + ICAM-1 ([1]; APC L^d + B7.1 + ICAM-1): 263.7 cpm × 10^3 | Proliferation (Day 3) ^3HTdR incorporation, fly cells expressing L^d + ICAM-1 ([1]; APC L^d + ICAM-1): 73.9 cpm × 10^3 | Proliferation (Day 3) ^3HTdR incorporation, L^d + B7.1 combined with L^d + ICAM-1 ([1]; mixture of two APC lines): 132.9 cpm × 10^3 | IL-2 Production (Day 2) ^3HTdR incorporation, fly cells expressing L^d ([2]; APC L^d): 0.1 cpm × 10^3 | IL-2 Production (Day 2) ^3HTdR incorporation, fly cells expressing L^d + B7.1 ([2]; APC L^d + B7.1): 0.4 cpm × 10^3 | IL-2 Production (Day 2) ^3HTdR incorporation, fly cells expressing L^d + B7.1 + ICAM-1 ([2]; APC L^d + B7.1 + ICAM-1): 158.6 cpm × 10^3 | IL-2 Production (Day 2) ^3HTdR incorporation, fly cells expressing L^d + ICAM-1 ([2]; APC L^d + ICAM-1): 0.2 cpm × 10^3 | IL-2 Production (Day 2) ^3HTdR incorporation, L^d + B7.1 combined with L^d + ICAM-1 ([2]; mixture of two APC lines): 0.5 cpm × 10^3 | lymphocytes included in rosettes (2C+ T-cells [3]; Drosophila S2 cells expressing L^d or L^d-coated SRBC): 30-40% | lymphocytes included in rosettes (2C+ T-cells [3]; Drosophila S2 cells expressing L^d or L^d-coated latex beads): 30-40% | proliferative response on Day 3 (normal B6 CD8^+ cells): 80,000 cpm | thymidine incorporation (2C+ T-cells [4]): above 100,000 cpm per well | enrichment in specific T-cells after 12 days (2C+ T-cells [5]; start 1/99): 43 times | cells expressing the 2C T-cell receptor (2C+) at day 12 (2C+ T-cells [5]; start 1/99 2C+/total CD8+, immobilized L^d and anti-CD28, IL-2 from day 2): 43% | lysis of target cells in the presence of peptide [6]: observed | affinity for 2C TCR molecules (soluble 2C TCR molecules): 2e+07 M⁻¹
